In test [1] the test system is hepatocytes. Nature of the test: Hepatic glucose production in vitro in isolated hepatocytes (Table IV). The class given is cell-based, Wistar rats. The procedure: The following two methods were used:
1) The hepatocytes are cultured for 16 to 18 hours in DMEM medium in the presence of AMP cyclase/dexamethasone at respective concentrations of 5×10^−5 M and 5×10^−7 M, with preincubation of the products at the test doses. After washing in pH 7.4 PBS buffer, the cells are incubated for three hours at 37° C. in a Krebs/AMPc/DEX buffer at the abovementioned concentrations. 0.1 μM insulin is used as reference substance. Two identical experiments are performed (Table III-1).
After washing in pH 7.4 PBS buffer, the cells are incubated for two hours at 37° C. in a Krebs buffer free of glucose and of insulin, containing lactate/pyruvate (10/1 mM) in the presence or absence of the test compounds. 10 μM MICA (5-methoxyindole-2-carboxylic acid) is used as reference substance. Two identical experiments are performed (Table III-2).
The protein assay is performed on the rest of the incubation medium via the Lowry method (BIO-RAD Dc protein assay, BIO-RAD 5000116).
The results are expressed as nmoles of glucose produced per […] of proteins. The statistical test used is the t test.

The subject of test [2] is perfused isolated pancreases from N0 STZ diabetic rats. In words: Secretion of insulin and glucagon in perfused isolated pancreases from N0 STZ diabetic rats. The class given is cell-based. As to conditions: perfused diabetic rat pancreas; absence of glucose, then 16.5 mM glucose; glucose-dependent. The text has this: The results are expressed as the mean ±SEM (standard error of mean) of several experiments. The statistical test used is the Scheffé test.

Test [3] deals with T1, kynurenine 3-hydroxylase (Rattus norvegicus, UniProt O88867).
T1 construct: from tissue; host or cells: rat liver homogenate (12000 rpm pellet, resuspended)
Nature of the test: Inhibitory activity on kynurenine 3-hydroxylase in rat liver homogenate. The class given is biochemical. The note with it: mean of two experiments, read-out: IC50, kynurenine 3-hydroxylase inhibition. The procedure:
Study of the Inhibitory Activity on Kynurenine 3-Hydroxylase in Rat Liver
Rat livers are homogenised (1:8 weight/volume) in a buffer solution comprising: 0.25 M sucrose; 50 mM pH 7.4 Tris; 1 mM EDTA; and 1 mM DTT.
The homogenates are centrifuged for 10 minutes at 12000 rpm. The pellets are resuspended in the buffer solution described above (1:2 weight/volume).
The kynurenine 3-hydroxylase inhibition is determined by incubating 10 μL of the homogenate with NADPH (2 mM), kynurenine (100 μM) and various concentrations of the test compounds in a final volume of 100 μL at 37° C. for 5 minutes.
The compounds are tested at concentrations of between 1 μM and 300 μM. 3,4-Dimethoxy-N-[4-(3-nitrophenyl)thiazol-2-yl]benzenesulfonamide is a compound from the company Hoffmann-LaRoche (Basle, see J. Med. Chem., 40 (1997), 4738). 30H-Kynurenine was tested according to the protocol described by Carpendo et al. (Neuroscience, 61 (1994), 237-244).
Each of the experiments is repeated once and the IC50 values (in μmol/L) are calculated and given in the form of a mean of these two experiments.
Results concerning representative examples of family Ih are given in Table II below, in which is indicated the measurement of the percentage of remaining kynurenine 3-hydroxylase activity relative to the control (100%).

T1 sequence (O88867 whole entry): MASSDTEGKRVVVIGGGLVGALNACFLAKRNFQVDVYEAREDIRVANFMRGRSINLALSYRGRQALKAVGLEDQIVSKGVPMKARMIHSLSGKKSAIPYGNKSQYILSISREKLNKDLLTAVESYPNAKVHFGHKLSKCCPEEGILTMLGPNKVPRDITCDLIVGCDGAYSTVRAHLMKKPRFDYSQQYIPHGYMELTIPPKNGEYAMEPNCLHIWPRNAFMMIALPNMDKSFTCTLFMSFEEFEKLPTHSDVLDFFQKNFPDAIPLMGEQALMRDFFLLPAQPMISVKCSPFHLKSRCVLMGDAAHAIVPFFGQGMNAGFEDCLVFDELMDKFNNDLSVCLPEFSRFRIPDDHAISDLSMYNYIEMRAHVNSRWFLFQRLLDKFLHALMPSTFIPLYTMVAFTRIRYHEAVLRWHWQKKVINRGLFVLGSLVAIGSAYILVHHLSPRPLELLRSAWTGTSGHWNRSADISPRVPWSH

A word on the inhibition: it is the change of the read-out against control, counted positive when it falls. A low value points to a weak effect. One may read the IC50 as the point on the concentration scale where inhibition reaches its midpoint. In test [1] (Rattus norvegicus, Hepatocyte), `COc1ccc(S(=O)(=O)Nc2nc(-c3cccc([N+](=O)[O-])c3)cs2)cc1OC` [Compound k, 3,4-dimethoxy-N-[4-(3-nitrophenyl)thiazol-2-yl]benzenesulfonamide] displayed an inhibition at 10 µM of 0% and an inhibition at 100 µM of 22%. Further, in test [2], the “glucagon secretion (in words)” value was “stimulation” and the “insulin secretion (in words)” value was “stimulation”. In addition, the IC50 in test [3] is 10 ± 2.1 µM.

On to `O=C(C[C@@H](Cc1ccccc1)C(=O)O)c1ccc(F)cc1` [Compound i, (R)-2-benzyl-4-(4-fluorophenyl)-4-oxobutanoic acid], for which 1 µM produced 13% inhibition in test [1] (Rattus norvegicus, Hepatocyte, 1 μM). In addition, in test [1] (Rattus norvegicus, Hepatocyte), the inhibition at 10 µM came to 28% and the inhibition at 100 µM worked out at 62%. Further, in test [1] (isolated rat hepatocytes), the “inhibition of hepatic glucose production in vitro (in words)” value is “powerful inhibitors of hepatic glucose production in vitro”. In test [2], the “glucagon secretion (in words)” value was “stimulation” and the “insulin secretion (in words)” value is on record as “stimulation”. Also, the IC50 in test [3] amounted to 1 ± 0.2 µM.

For the origin of these results see patent US20060052456A1, “Kynurenine 3-hydroxylase inhibitors for the treatment of diabetes by increasing the number of islets of langerhans cells” (MERCK PATENT GMBH, priority 2003, published 2006).
